Where no end group is shown, it is not given here.
Legend:
Cavα1.2 [1] = assay: Western blot of Cavα1.2 protein levels in HEK293 cells transfected with peptides, serum removal; format: cell-based; details: specific mutations within either the MP or Cavα1.2
Source text: (§1) a) Western blotting analysis of Cavα1.2 and GAPDH protein levels of total protein lysates; b) Intracellular Ca^2+fluxes; (c) Molecular modeling and docking of a peptide (SEQ ID NO:2, dark grey) to TID region (SEQ ID NO:10, light grey) of Cavβ2.; (d) Western blotting analysis of Cavα1.2 and GAPDH protein levels of total protein lysates; (e) Confocal analyses of adult cardiomyocytes treated with TAT-MP- and TAT-scramble-and stained with di 8-ANEPPS dye. MP=SEQ ID NO:3, scramble=SEQ ID NO:11. (f) Western blotting analysis of Cavα1.2 and GAPDH protein levels of total protein lysates from HEK293 cells treated with increasing doses of MP; (g) Ca^2+ current measurements in tSA-201 cells previously transfected. For Western blotting analyses, HEK293 or tSA-201 cells transfected or treated as indicated. Protein levels were normalized to GAPDH. (n=4). Data are shown as the means±SEM; *, P<0.05, **, P<0.005; ***, P<0.001.
Based on the evidence shown in example 1, we next investigated whether mimetic peptides (MPs) might recapitulate the mechanism by which LTCCs are protected from protein degradation by binding to the TID domain. […]

pdk1 knockout mice = assay: Genetic mouse model of heart failure (inducible cardiac specific PDK1 knockout); format: in vivo; details: for cardiac (left ventricular) function, echocardiography: PDK1 knockout mice after tamoxifen, cell penetrating peptides
Procedure: (a, top) Design of study. Echo, echocardiography. (a, bottom) Fractional shortening (%) as determined by echocardiography in pdk1 knockout mice treated with mimetic peptide (TAT-MP) or scramble (TAT-scramble). (b) Western blotting analysis of Cavα1.2 and GAPDH protein levels of total protein lysates from left ventricular homogenates. Protein levels were normalized to GAPDH. (n=4) MP=SEQ ID NO:3, scramble=SEQ ID NO:11. Tamoxifen (TAM) and peptide was injected daily as indicated. Protein levels were normalized to GAPDH.
To explore the in vivo therapeutic potential, MP was used in an inducible and cardiac specific knockout of the phosphoinositide-dependent kinase 1 (PDK1), the upstream activator of all three Akt isoforms. […] We then treated the mice with either cell penetrating MP or scramble peptides and followed the phenotype for the following days. […] MP=SEQ ID NO: 3; TAT-scramble=scramble=SEQ ID NO:11.

Cavα1.2 [2] = assay: Western blot of Cavα1.2 protein levels in iPSC-CMs subjected to an Akt inhibitor; format: cell-based, human; details: iPSC-CMs co-treated with Akt inhibitor
Source text: (a) Western blotting analysis of Cavα1.2 and GAPDH protein levels of total protein lysates from cardiomyocytes (CMs) differentiated from induced pluripotent stem cells (iPSCs) and previously derived from skin fibroblasts of healthy individuals. (n=4) Cells were untreated or treated with an Akt-inhibitor. MP=SEQ ID NO:3, scramble=SEQ ID NO:11.
(§2) Based on this, we next performed functional analyses and examined the iPSC-CM beating clusters (BCs) for Ca^2+ handling properties. […] On the other hand, no effects were observed when BCs were co-treated with scramble.

iPSC-CM beating clusters = assay: Ca2+ handling in iPSC-CM beating clusters treated with Akt-inhibitor; format: cell-based, human; details: iPSC-CM beating clusters co-treated with Akt-inhibitor
Source text: as §2

LTCCs = assay: Confocal analysis of co-localization with LTCCs in isolated adult cardiomyocytes; format: cell-based
Source text: as §1
(§3) To facilitate the intracellular uptake, a cell-penetrating peptide (CPP) was conjugated to the MP (SEQ ID NO: 3). […] Thus, the trans-activating transcriptional activator (TAT) from Human Immunodeficiency Virus 1 (HIV-1) was used. […] TAT-MP=SEQ ID NO: 3; TAT-scramble=scramble=SEQ ID NO:11.

Cavα1.2 [3] = assay: Western blot of Cavα1.2 protein degradation in peptide-treated cells, serum removal; format: cell-based
Source text: as §1, §3

LTCC = biological target: T1, LTCC (Homo sapiens, UniProt Q08289); assay: Ca2+ current measurements in tSA-201 cells, serum removal; format: cell-based
T1 construct: expressed in transfected cells; host or cells: tSA-201
Source text: as §1, §3

T1 sequence (Q08289 whole entry): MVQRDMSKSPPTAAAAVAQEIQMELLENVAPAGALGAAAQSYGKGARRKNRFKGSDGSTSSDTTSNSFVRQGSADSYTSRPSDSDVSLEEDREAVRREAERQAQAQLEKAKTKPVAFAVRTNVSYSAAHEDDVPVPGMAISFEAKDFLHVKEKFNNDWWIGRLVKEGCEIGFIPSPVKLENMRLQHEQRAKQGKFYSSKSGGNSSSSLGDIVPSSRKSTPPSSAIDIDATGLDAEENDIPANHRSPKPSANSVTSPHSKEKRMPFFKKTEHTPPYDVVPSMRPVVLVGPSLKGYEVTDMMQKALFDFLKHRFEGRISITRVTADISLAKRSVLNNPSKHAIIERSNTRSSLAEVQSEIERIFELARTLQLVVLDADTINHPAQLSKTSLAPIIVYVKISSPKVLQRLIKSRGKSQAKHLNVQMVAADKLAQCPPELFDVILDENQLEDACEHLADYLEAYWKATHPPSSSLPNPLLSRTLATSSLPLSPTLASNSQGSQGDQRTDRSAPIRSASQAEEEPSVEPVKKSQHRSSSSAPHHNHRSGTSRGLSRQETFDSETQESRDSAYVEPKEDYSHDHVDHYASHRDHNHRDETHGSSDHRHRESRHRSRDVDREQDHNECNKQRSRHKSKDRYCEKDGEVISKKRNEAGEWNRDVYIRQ
T1 sequence (Q13936 whole entry partner): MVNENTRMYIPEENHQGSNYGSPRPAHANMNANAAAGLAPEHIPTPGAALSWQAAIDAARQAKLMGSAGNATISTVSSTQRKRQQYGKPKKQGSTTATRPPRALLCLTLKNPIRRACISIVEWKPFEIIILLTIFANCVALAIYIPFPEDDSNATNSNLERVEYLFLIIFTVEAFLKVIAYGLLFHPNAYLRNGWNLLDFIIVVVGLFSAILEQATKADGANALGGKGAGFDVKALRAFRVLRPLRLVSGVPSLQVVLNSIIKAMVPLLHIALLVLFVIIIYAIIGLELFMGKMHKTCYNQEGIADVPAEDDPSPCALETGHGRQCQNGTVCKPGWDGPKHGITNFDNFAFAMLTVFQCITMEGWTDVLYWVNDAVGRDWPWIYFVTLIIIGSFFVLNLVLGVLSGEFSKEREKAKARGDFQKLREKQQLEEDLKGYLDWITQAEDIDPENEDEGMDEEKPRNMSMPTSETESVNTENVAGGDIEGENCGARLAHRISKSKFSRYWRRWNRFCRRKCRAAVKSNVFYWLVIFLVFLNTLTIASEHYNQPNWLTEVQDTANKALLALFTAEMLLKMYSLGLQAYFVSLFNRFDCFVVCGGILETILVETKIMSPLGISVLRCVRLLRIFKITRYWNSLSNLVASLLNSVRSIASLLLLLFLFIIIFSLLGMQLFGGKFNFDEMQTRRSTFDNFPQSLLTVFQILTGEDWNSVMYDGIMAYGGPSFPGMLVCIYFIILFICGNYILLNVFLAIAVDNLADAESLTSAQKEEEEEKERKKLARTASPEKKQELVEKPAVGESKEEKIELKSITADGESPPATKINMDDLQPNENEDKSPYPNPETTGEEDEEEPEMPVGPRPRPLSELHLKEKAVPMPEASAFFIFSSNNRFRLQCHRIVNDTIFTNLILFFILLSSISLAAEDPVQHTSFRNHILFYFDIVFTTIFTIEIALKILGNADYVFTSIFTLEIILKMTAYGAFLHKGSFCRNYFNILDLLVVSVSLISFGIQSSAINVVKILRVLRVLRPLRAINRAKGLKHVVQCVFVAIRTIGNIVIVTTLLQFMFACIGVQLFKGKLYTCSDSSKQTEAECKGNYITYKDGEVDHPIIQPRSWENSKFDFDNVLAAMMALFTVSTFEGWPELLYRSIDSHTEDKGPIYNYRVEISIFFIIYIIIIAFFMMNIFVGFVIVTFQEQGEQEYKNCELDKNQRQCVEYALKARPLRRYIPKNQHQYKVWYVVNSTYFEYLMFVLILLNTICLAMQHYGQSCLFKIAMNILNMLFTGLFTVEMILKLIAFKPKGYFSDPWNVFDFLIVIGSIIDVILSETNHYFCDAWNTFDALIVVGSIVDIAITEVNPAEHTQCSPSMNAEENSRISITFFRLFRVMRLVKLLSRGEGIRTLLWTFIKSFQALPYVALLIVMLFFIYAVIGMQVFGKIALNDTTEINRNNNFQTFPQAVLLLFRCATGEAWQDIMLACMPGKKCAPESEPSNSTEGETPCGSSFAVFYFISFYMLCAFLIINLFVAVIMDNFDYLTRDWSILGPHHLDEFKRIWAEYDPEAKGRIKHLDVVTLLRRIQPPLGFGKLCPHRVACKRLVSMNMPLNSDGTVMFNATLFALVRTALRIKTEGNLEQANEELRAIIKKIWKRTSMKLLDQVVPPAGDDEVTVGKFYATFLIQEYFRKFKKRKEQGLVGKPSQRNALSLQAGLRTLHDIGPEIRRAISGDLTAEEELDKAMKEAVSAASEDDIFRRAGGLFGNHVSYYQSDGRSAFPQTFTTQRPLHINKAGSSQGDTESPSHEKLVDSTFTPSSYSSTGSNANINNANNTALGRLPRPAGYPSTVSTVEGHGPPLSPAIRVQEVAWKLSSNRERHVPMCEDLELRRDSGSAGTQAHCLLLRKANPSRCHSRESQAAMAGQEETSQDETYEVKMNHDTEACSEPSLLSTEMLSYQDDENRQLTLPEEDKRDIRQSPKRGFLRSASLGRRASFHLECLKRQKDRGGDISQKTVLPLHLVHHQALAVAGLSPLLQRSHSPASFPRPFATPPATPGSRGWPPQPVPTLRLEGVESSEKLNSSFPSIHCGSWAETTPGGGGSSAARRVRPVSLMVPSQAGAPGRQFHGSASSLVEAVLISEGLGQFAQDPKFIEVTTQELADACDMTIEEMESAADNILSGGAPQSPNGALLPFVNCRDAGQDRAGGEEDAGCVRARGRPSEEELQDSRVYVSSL

Row | Sequence | protective effect on Cavα1.2 when mutations abolish the predicted MP-TID interaction (Cavα1.2 [1]) | cardiac (left ventricular) function, echocardiography (pdk1 knockout mice) | LTCC protein levels (pdk1 knockout mice; left ventricular homogenates of PDK1 knockout mice) | downregulation of Cavα1.2 protein levels (Cavα1.2 [2]) | slowing (delay) of Ca2+ transient development (iPSC-CM beating clusters) | co-localization with LTCCs (LTCCs) | protection of Cavα1.2 from protein degradation (Cavα1.2 [3]) | Ca2+ current (LTCC)
1 | DQRPDREAPRS [MP] | completely lost | significant attenuation of the impairment of cardiac function | restoration of LTCC protein levels | prevented | sufficient for reducing this delay | – | – | –
2 | DQPPSRRDERA [scramble control peptide] | – | progressive impairment of left ventricular function | – | no rescuing effects | no effects | none of these effects were observed | none of these effects were observed | none of these effects were observed
